According to US11419335B2, “N-arylated analogues and uses thereof” (University of Florida Research Foundation, Incorporated, priority 2016, dated 2022):
Marks after values point to notes of the source that are not given here.

Key:
[1] = test system: SA-156 (clinical isolate); assay: MIC broth microdilution, SA-156; type: cell-based, Staphylococcus aureus
Procedure: (§1) The minimum inhibitory concentration (MIC) for each tested compound was determined by the broth microdilution method as recommended by the Clinical and Laboratory Standards Institute (CLSI). In a 96-well plate, eleven two-fold serial dilutions of each compound were made in a final volume of 100 μL Luria Broth. Each well was inoculated with ˜10^5 bacterial cells at the initial time of incubation, prepared from a fresh log phase culture (OD600 of 0.5 to 1.0 depending on bacterial strain). […] (MIC values were supported by spectrophotometric readings at OD600). DMSO served as our vehicle and negative control in each microdilution MIC assay. DMSO was serially diluted with a top concentration of 1% v/v.
(§2) Each well was inoculated with ˜10^5 bacterial cells at the initial time of incubation, prepared from a fresh log phase culture (OD600 of 0.5 to 1.0 depending on bacterial strain). […] The concentration range tested for each compound during this study was 0.10 to 100 μM. DMSO served as our vehicle and negative control in each microdilution MIC assay. DMSO was serially diluted with a top concentration of 1% v/v. All MIC values were obtained from a minimum of three independent experiments.

[2] = test system: Acinetobacter baumannii (ATCC 1794); assay: MIC broth microdilution, A. baumannii 1794; type: cell-based
Procedure: (§3) The minimum inhibitory concentration (MIC) for each tested compound was determined by the broth microdilution method as recommended by the Clinical and Laboratory Standards Institute (CLSI). In a 96-well plate, eleven two-fold serial dilutions of each compound were made in a final volume of 100 μL Luria Broth. Each well was inoculated with ˜10^5 bacterial cells at the initial time of incubation, prepared from a fresh log phase culture (OD600 of 0.5 to 1.0 depending on bacterial strain). The MIC was defined as the lowest concentration of compound that prevented bacterial growth after incubating 16 to 18 hours at 37° C. (MIC values were supported by spectrophotometric readings at OD600). DMSO served as our vehicle and negative control in each microdilution MIC assay. DMSO was serially diluted with a top concentration of 1% v/v.
as §3, with “for each compound was” for “for each tested compound was”, “Standards Institute (CLSI).^6 In a” for “Standards Institute (CLSI). In a”, “concentration of test compound that” for “concentration of compound that”, “37° C. The concentration range tested for each compound during this study was 0.10 to 100 μM. DMSO served” for “37° C. (MIC values were supported by spectrophotometric readings at OD600). DMSO served”, “1% v/v. All MIC values were obtained from a minimum of three independent experiments.” for “1% v/v.”

[3] = test system: methicillin-resistant Staphylococcus epidermidis (MRSE strain ATCC 35984); assay: MIC broth microdilution, MRSE 35984; type: cell-based
Procedure: as §3
as §3, with “for each compound was” for “for each tested compound was”, “Standards Institute (CLSI).^6 In a” for “Standards Institute (CLSI). In a”, “concentration of test compound that” for “concentration of compound that”, “37° C. The concentration range tested for each compound during this study was 0.10 to 100 μM. DMSO served” for “37° C. (MIC values were supported by spectrophotometric readings at OD600). DMSO served”, “1% v/v. All MIC values were obtained from a minimum of three independent experiments.” for “1% v/v.”

[4] = test system: vancomycin-resistant Enterococcus faecium (VRE strain ATCC 700221); assay: MIC broth microdilution, VRE 700221; type: cell-based
Procedure: as §3
as §3, with “for each compound was” for “for each tested compound was”, “Standards Institute (CLSI).^6 In a” for “Standards Institute (CLSI). In a”, “concentration of test compound that” for “concentration of compound that”, “37° C. The concentration range tested for each compound during this study was 0.10 to 100 μM. DMSO served” for “37° C. (MIC values were supported by spectrophotometric readings at OD600). DMSO served”, “1% v/v. All MIC values were obtained from a minimum of three independent experiments.” for “1% v/v.”

[5] = test system: MRSA BAA-1707; assay: MIC broth microdilution, MRSA BAA-1707; type: cell-based, Staphylococcus aureus
Procedure: as §1, §2

[6] = test system: methicillin-resistant Staphylococcus aureus MRSA-2 (clinical isolate); assay: MIC broth microdilution, MRSA-2; type: cell-based
Procedure: as §3
as §3, with “for each compound was” for “for each tested compound was”, “Standards Institute (CLSI).^6 In a” for “Standards Institute (CLSI). In a”, “concentration of test compound that” for “concentration of compound that”, “37° C. The concentration range tested for each compound during this study was 0.10 to 100 μM. DMSO served” for “37° C. (MIC values were supported by spectrophotometric readings at OD600). DMSO served”, “1% v/v. All MIC values were obtained from a minimum of three independent experiments.” for “1% v/v.”

[7] = test system: methicillin-sensitive Staphylococcus aureus ATCC 29213; assay: MIC broth microdilution, S. aureus 29213; type: cell-based
Procedure: as §1, §2

[8] = test system: MRSA BAA-44; assay: MIC broth microdilution, MRSA BAA-44; type: cell-based, Staphylococcus aureus
Procedure: as §1, §2

[9] = test system: Pseudomonas aeruginosa (PAO1); assay: MIC broth microdilution, PAO1; type: cell-based
Procedure: as §3
as §3, with “for each compound was” for “for each tested compound was”, “Standards Institute (CLSI).^6 In a” for “Standards Institute (CLSI). In a”, “concentration of test compound that” for “concentration of compound that”, “37° C. The concentration range tested for each compound during this study was 0.10 to 100 μM. DMSO served” for “37° C. (MIC values were supported by spectrophotometric readings at OD600). DMSO served”, “1% v/v. All MIC values were obtained from a minimum of three independent experiments.” for “1% v/v.”

[10] = test system: SA-147 (clinical isolate); assay: MIC broth microdilution, SA-147; type: cell-based, Staphylococcus aureus
Procedure: as §1, §2

[11] = test system: MRSA-1 (clinical isolate); assay: MIC broth microdilution, MRSA-1; type: cell-based, Staphylococcus aureus
Procedure: as §1, §2

[12] = test system: SA-138 (clinical isolate); assay: MIC broth microdilution, SA-138; type: cell-based, Staphylococcus aureus
Procedure: as §1, §2

[13] = test system: SA-129 (clinical isolate); assay: MIC broth microdilution, SA-129; type: cell-based, Staphylococcus aureus
Procedure: as §1, §2

CCCCCCCCCCCCCCCCn1cc[n+](CCCC)c1C.[Br-] [Compound 9]
MIC SA-156 ([1]; Table 1B): 2.35^s μM | MIC SA-156 ([1]; Table 3): 2.35^a μM | MIC A. baumannii 1794 ([2]; Table 1A, in µM): 12.5 | MIC A. bau. 1794 ([2]; Table 4): 12.5 µM | MIC S. epidermidis MRSE 35984 ([3]; Table 1A): 1.17^a | MIC MRSE 35984 ([3]; Table 4): 1.17a micromolar | MIC E. faecium VRE 700221 ([4]; Table 1A): 1.17^a | MIC VRE 700221 ([4]; Table 4): 1.17a micromolar | MIC MRSA BAA-1707 ([5]; Table 1B): 2.35^a μM | MIC MRSA BAA-1707 ([5]; Table 3): 2.35^a μM | MIC MRSA 1707 ([5]; Table 4): 2.35a micromolar | MIC MRSA-2 ([6]; Table 1A): 2.35^a | MIC MRSA-2 ([6]; Table 1B): 2.35^a μM | MIC MRSA-2 ([6]; Table 3): 2.35^a μM | MIC MRSA-2 ([6]; Table 4): 2.35a micromolar | MIC S. aureus 29213 ([7]; Table 1B): 2.35^a μM | MIC S. aureus 29213 ([7]; Table 3): 2.35^a μM | MIC MRSA BAA-44 ([8]; Table 1B): 2.35^a μM | MIC MRSA BAA-44 ([8]; Table 3): 2.35^a μM | MIC PAO1 ([9]; Table 1A): > 100 µM | MIC PAO1 ([9]; Table 4): >100 µM | MIC SA-147 ([10]; Table 1B): 1.17^a μM | MIC SA-147 ([10]; Table 3): 1.17^a μM | MIC ([11]; Table 1B): 1.56 µM | MIC ([11]; Table 3): 1.56 µM | MIC SA-138 ([12]; Table 1B): 1.17^a μM | MIC SA-138 ([12]; Table 3): 1.17^a μM | MIC ([13]; Table 1B): 1.56 µM | MIC ([13]; Table 3): 1.56 µM
